Reference: US6677316B2, “Adenosine derivatives and methods of administration” (SmithKline Beecham Corporation, priority 1998, dated 2004)

Tests used:
[1] = molecular target: T1, human adenosine A1 receptor (Homo sapiens, UniProt P30542); assay: Reporter gene assay (CRE/SPAP) in CHO cells, agonist potency relative to NECA, adenosine A1 receptor; assay type: cell-based; set-up: key: equipotent concentration ratio, NECA = 1; details: ECR = equipotent concentration ratio relative to NECA = 1, inhibition of forskolin-stimulated SPAP production
T1 construct: expressed in transfected cells; host or cells: Chinese hamster ovary (CHO) cells with CRE/SPAP/HYG reporter elements
T1 sequence (P30542 1-326): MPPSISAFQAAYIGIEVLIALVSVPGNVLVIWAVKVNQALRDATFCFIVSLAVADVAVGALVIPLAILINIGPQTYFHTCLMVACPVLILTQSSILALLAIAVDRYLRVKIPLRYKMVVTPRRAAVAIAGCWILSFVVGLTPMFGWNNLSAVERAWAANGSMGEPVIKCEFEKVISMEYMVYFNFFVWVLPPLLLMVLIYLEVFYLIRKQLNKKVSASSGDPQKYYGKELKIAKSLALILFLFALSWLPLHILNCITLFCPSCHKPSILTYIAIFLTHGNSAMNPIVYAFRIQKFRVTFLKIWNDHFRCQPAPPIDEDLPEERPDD
Procedure: (§1) Reporter Gene Experiments
(§2) Agonist activity was measured in Chinese hamster ovary (CHO) cells containing the CRE/SPAP/HYG (CRE=cyclic AMP response element; HYG=hygromycin resistance; SPAP=secreted placental alkaline phosphatase) reporter gene elements, which upon stimulation of cAMP levels produced SPAP. A cell line was used, which was stably transfected with either the human adenosine A1 receptor or the human adenosine A3 receptor in addition to the above elements. Cells were plated out in 96-well plates in culture medium and incubated at 37° C. for 1 hour. For measurement of potency, agonists were added to the appropriate wells at a concentration range of approximately 10^−10- 10^−5M. 15Min later, cAMP levels were stimulated by addition of a maximal concentration of forskolin. All cells were then incubated for a further 5 hours at 37° C., and cooled to room temperature, after which a substrate for the phosphatase (para-nitrophenol phosphate, pNPP), which is converted by SPAP to a coloured reagent) was then added and the 96-well -plates were read in a plate reader. From these readings, the concentration-dependence of the inhibition by the agonist for forskolin-stimulated SPAP production can be calculated. One of the agonists tested on each 96-well plate was the standard non-selective agonist, N-ethylcarboxamidoadenosine (NECA), and the potency of all test agonists is expressed relative to that of the NECA standard.
(§3) (ECR=equipotent concentration ratio relative to NECA=1)

[2] = molecular target: T2, human adenosine A3 receptor (Homo sapiens, UniProt P0DMS8); assay: Reporter gene assay (CRE/SPAP) in CHO cells, agonist potency relative to NECA, adenosine A3 receptor; assay type: cell-based; set-up: key: equipotent concentration ratio, NECA = 1; details: ECR = equipotent concentration ratio relative to NECA = 1, inhibition of forskolin-stimulated SPAP production
T2 construct: expressed in transfected cells; host or cells: Chinese hamster ovary (CHO) cells with CRE/SPAP/HYG reporter elements
T2 sequence (P0DMS8 1-318): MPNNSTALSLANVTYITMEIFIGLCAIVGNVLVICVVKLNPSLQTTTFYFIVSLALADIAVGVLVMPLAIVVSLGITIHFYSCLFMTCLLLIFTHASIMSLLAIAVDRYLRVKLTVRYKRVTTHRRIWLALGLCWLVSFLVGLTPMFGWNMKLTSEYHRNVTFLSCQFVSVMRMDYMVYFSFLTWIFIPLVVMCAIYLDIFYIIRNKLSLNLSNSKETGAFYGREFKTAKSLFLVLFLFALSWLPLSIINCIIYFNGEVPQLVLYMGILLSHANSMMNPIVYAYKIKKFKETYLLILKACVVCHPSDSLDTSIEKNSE
Procedure: as §1, §2, §3

Compound | Adenosine A1 receptor ECR* [1] | Adenosine A3 receptor ECR* [2]
CCc1cc([C@H]2O[C@@H](n3cnc4c(NC(CC)CC)nc(Cl)nc43)[C@H](O)[C@@H]2O)no1.O=CO [Example 163, (2R,3R,4S,5R)-2-{2-chloro-6-[(1-ethylpropyl)amino]-9H-purin-9-yl}-5-(5-ethylisoxazol-3-yl)tetrahydrofuran-3,4-diol Formate] | 1.34 | 232
CCNS(=O)(=O)CCNc1ncnc2c1ncn2[C@@H]1O[C@H](c2cc(C(C)(C)C)no2)[C@@H](O)[C@H]1O [Example 177, 2-[(9-{(2R,3R,4S,5S)-5-[3-(tert-butyl)isoxazol-5-yl]-3,4-dihydroxy-tetrahydrofuran-2-yl}-9H-purin-6-yl)amino]-N-ethylethane-sulfonamide] | 2.01 | 122
O[C@@H]1[C@H](O)[C@@H](c2nnc(C(F)(F)F)o2)O[C@H]1n1cnc2c(NC3CCCC3)ncnc21 [Example 178, (2R,3R,4S,5S)-2-[6-(cyclo-pentylamino)-9H-purin-9-yl]-5-[5-(trifluoromethyl)-1,3,4-oxadiazol-2-yl]-tetrahydrofuran-3,4-diol] | 7.42 | >471
CCOC(=O)N1CCC(Nc2ncnc3c2ncn3[C@@H]2O[C@H](c3nnc(C(F)(F)F)o3)[C@@H](O)[C@H]2O)CC1 [Example 180, ethyl 4-[(9-{(2R,3R,4S,5S)-3,4-dihydroxy-5-[5-(trifluoromethyl)-1,3,4-oxadiazol-2-yl]-tetrahydrofuran-2-yl}-9H-purin-6-yl)amino]-piperidine-1-carboxylate] | 18.1 | >471
